Experimental data taken from PubChem BioAssay (NCI).
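The compound was tested at five concentrations on cells cultured in 96-well plates, with a 48-hour exposure period. At the GI50, growth is halved. At the TGI there is no net growth.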

Columns and labels:
Test in all cases: DTP human tumour cell line panel, 48 h
HOP-92 NSCLC = tested on: HOP-92 NSCLC
IGROV1 ovarian = tested on: IGROV1 ovarian
UACC-62 melanoma = tested on: UACC-62 melanoma
NCI-H23 lung = tested on: NCI-H23 lung
DU-145 prostate = tested on: DU-145 prostate
SNB-75 CNS = tested on: SNB-75 CNS
SK-MEL-28 melanoma = tested on: SK-MEL-28 melanoma
CAKI-1 renal = tested on: CAKI-1 renal
NCI-H460 lung = tested on: NCI-H460 lung
HT29 colon = tested on: HT29 colon
MOLT-4 leukemia = tested on: MOLT-4 leukemia
SNB-19 CNS = tested on: SNB-19 CNS

SMILES	TGI (HOP-92 NSCLC) [µM]	TGI (IGROV1 ovarian) [µM]	TGI (UACC-62 melanoma) [µM]	TGI (NCI-H23 lung) [µM]	TGI (DU-145 prostate) [µM]	TGI (SNB-75 CNS) [µM]	TGI (SK-MEL-28 melanoma) [µM]	TGI (CAKI-1 renal) [µM]	TGI (NCI-H460 lung) [µM]	TGI (HT29 colon) [µM]	TGI (MOLT-4 leukemia) [µM]	TGI (SNB-19 CNS) [µM]	GI50 (UACC-62 melanoma) [µM]	GI50 (DU-145 prostate) [µM]	GI50 (SNB-75 CNS) [µM]	GI50 (SK-MEL-28 melanoma) [µM]	GI50 (HT29 colon) [µM]	GI50 (HOP-92 NSCLC) [µM]	GI50 (MOLT-4 leukemia) [µM]	GI50 (CAKI-1 renal) [µM]
O=C(O)CN1CCCC(Cc2c[nH]c3ccccc23)C1 (centres undefined)	> 100	> 100	> 100	> 100	> 100	> 100	> 100	> 100	–	–	–	–	–	–	–	–	–	–	–	–
CSc1c2c(C)n[nH]c2nn1-c1ccccc1	–	–	> 100	> 100	> 100	> 100	> 100	87.4	> 100	> 100	> 100	> 100	–	–	–	–	–	–	–	–
Brc1c2nc3ccccc3nc2n2ccc3ccccc3c12	> 100	> 100	> 100	> 100	–	> 100	> 100	> 100	> 100	–	> 100	> 100	–	–	–	–	–	–	–	–
N#C/C=c1/c2ccccc2n2nc3ccccc3c12	–	58.3	> 100	59.2	> 100	–	> 100	> 100	> 100	> 100	–	40	–	–	–	–	–	–	–	–
O=C1CCCCC/C1=C\c1cccc([N+](=O)[O-])c1	–	50.4	67.6	–	> 100	> 100	> 100	> 100	67.9	> 100	83.5	> 100	–	–	–	–	–	–	–	–
CCn1c(-c2ccc(OC)cc2)nc2c1C(=O)c1ccccc1C2=O	> 100	> 100	> 100	> 100	> 100	> 100	> 100	–	> 100	> 100	> 100	> 100	–	–	–	–	–	–	–	–
NC(=O)COc1c(Br)cc(Br)cc1Br	–	–	> 100	> 100	–	> 100	> 100	> 100	> 100	> 100	> 100	> 100	–	–	–	–	–	–	–	–
CC(=O)NNC(=S)/N=C\c1c(O)c2ccccc2oc1=O	–	> 100	> 100	> 100	> 100	> 100	> 100	> 100	> 100	> 100	> 100	> 100	–	–	–	–	–	–	–	–
Nc1ccc2nc(Nc3ccc(Cl)c(Cl)c3)cnc2c1	–	–	–	66.5	–	> 100	36.8	> 100	45.3	36.9	97.7	38.7	–	–	–	–	–	–	–	–
CCOC(=O)CCC(NC(=O)c1ccc(Nc2nc3cc(C(F)(F)F)ccc3nc2C(=O)OCC)cc1)C(=O)OCC (centres undefined)	9.95	43.5	41.7	39.9	> 100	–	27.9	–	33.9	18.7	> 100	22.6	–	–	–	–	–	–	–	–
COC(=O)c1ccccc1NC(=S)NN(C)C	–	> 100	> 100	> 100	> 100	> 100	> 100	> 100	–	–	> 100	> 100	–	–	–	–	–	–	–	–
CCCCCCCCCCCCCCCCNCC(O)CN (centres undefined)	9.36	18.9	17	16.8	–	11	25.8	30	3.56	4.44	4.87	36	–	–	–	–	–	–	–	–
O=C(NC12CC3CC(CC(C3)C1)C2)C(=O)c1c[nH]c2ccc(Br)cc12	48.1	> 100	> 100	> 100	–	28.2	> 100	> 100	27	14.4	44.2	95.6	–	–	–	–	–	–	–	–
Cc1nc2ccccc2c(=O)n1NC(=O)c1ccccc1[N+](=O)[O-]	> 100	> 100	> 100	> 100	> 100	> 100	> 100	–	> 100	> 100	> 100	> 100	–	–	–	–	–	–	–	–
O=C1C(C(c2ccc([N+](=O)[O-])cc2)N2CCOCC2)=C(O)C(c2ccccc2)N1c1ccccc1 (centres undefined)	–	> 10	> 10	> 10	> 10	> 10	> 10	> 10	> 10	> 10	> 10	> 10	–	–	–	–	–	–	–	–
Fc1ccc2[nH]cc(-c3nc(-c4c[nH]c5ccncc45)cs3)c2c1	–	–	3.2	–	3.1	2.62	3.33	–	–	–	–	–	1.72	1.69	1.22	1.9	–	–	–	–
CCCc1n[nH]c(=O)n1N1C(=O)C=CC1=O	–	> 100	> 100	> 100	> 100	–	–	> 100	> 100	–	> 100	–	–	–	–	–	–	–	–	–
COC(=O)[C@H]1[C@@H](O)[C@@]2(O)c3c(OC)cc(OC)cc3O[C@@]2(c2ccc3c(c2)OCO3)[C@@H]1c1ccccc1	> 50	0.666	> 50	0.823	4.51	–	–	0.264	–	0.273	0.0482	0.00512	–	–	–	–	–	–	–	–
COc1ccc(N2CN(C)CSC2=S)cc1	–	> 100	> 100	> 100	> 100	> 100	> 100	> 100	> 100	> 100	> 100	> 100	–	–	–	–	–	–	–	–
C/C=C/c1cc2c(c(=O)o1)C(=O)[C@@H](O)[C@H](C)O2	31.2	23.3	34.1	32.4	–	39	29.5	31.3	46.9	44.6	49.3	46.1	–	–	–	–	–	–	–	–
C=CC(C)(C)C1(CC(OC)OC)C(=O)N(C)c2ccccc21 (centres undefined)	> 25	–	> 25	> 25	> 25	> 25	> 25	> 25	> 25	> 25	–	> 25	–	–	–	–	–	–	–	–

SMILES	TGI (HOP-92 NSCLC) [µM]	TGI (IGROV1 ovarian) [µM]	TGI (UACC-62 melanoma) [µM]	TGI (NCI-H23 lung) [µM]	TGI (DU-145 prostate) [µM]	TGI (SNB-75 CNS) [µM]	TGI (SK-MEL-28 melanoma) [µM]	TGI (CAKI-1 renal) [µM]	TGI (NCI-H460 lung) [µM]	TGI (HT29 colon) [µM]	TGI (MOLT-4 leukemia) [µM]	TGI (SNB-19 CNS) [µM]	GI50 (UACC-62 melanoma) [µM]	GI50 (DU-145 prostate) [µM]	GI50 (SNB-75 CNS) [µM]	GI50 (SK-MEL-28 melanoma) [µM]	GI50 (HT29 colon) [µM]	GI50 (HOP-92 NSCLC) [µM]	GI50 (MOLT-4 leukemia) [µM]	GI50 (CAKI-1 renal) [µM]
COc1cccc2c1C(=O)c1c(O)c3c(c(O)c1C2=O)C[C@@](O)(C(=O)CN1CCOCC1)C[C@@H]3OC1CC(N)C(O)C(C)O1 (some centres undefined)	33.9	> 90.6	15.7	20.9	–	22.4	29.1	> 53.8	> 69.9	–	1.15	> 100	–	–	–	–	3.87	5.27	0.234	2.61
N/C(=N\NC(=O)c1nc2ccccc2s1)c1ccccn1	> 100	> 100	19.5	52.6	> 40.2	> 45.1	> 100	–	17.9	50.7	18.7	> 100	–	–	–	–	–	–	–	–
Cc1c(-c2coc(-c3ccccc3)n2)c(=O)n(-c2ccccc2)n1C	> 100	> 100	–	> 100	–	> 100	> 100	–	> 100	> 100	86.9	> 100	–	–	–	–	–	–	–	–
CC1(C)Oc2ccc3c(=O)cc(-c4cccs4)oc3c2C1C(=O)O (centres undefined)	–	> 100	–	> 100	> 100	–	–	60.4	–	> 100	> 100	–	–	–	–	–	–	–	–	–
CCCCOc1c(C(=O)O)cc(Br)cc1C(=O)O	> 100	> 100	–	> 100	–	> 100	> 100	> 100	> 100	–	> 100	> 100	–	–	–	–	–	–	–	–
Clc1ccc2nc3n[nH]c(Cl)c3nc2c1	–	–	> 100	> 100	> 100	> 100	> 100	> 100	> 100	> 100	> 100	> 100	–	–	–	–	–	–	–	–
CCOC(=O)C1(C#N)C2(C#N)C(N)=NC(ON=C(C)C)(ON=C(C)C)C12C#N (centres undefined)	> 100	> 100	> 100	> 100	> 100	–	> 100	> 100	> 100	> 100	> 100	> 100	–	–	–	–	–	–	–	–
N#CNC(=NCc1ccccc1)NCCc1c[nH]c2ccccc12	–	> 100	> 100	> 100	–	> 100	> 100	–	> 100	> 100	> 100	> 100	–	–	–	–	–	–	–	–
Nc1ncnc2c1sc(=S)n2-c1ccccc1	> 100	> 100	> 100	> 100	–	> 100	> 100	> 100	> 100	> 100	> 100	> 100	–	–	–	–	–	–	–	–
Cc1ccc(/C(O)=C/c2nc3cccnc3[nH]c2=O)cc1	> 100	> 100	> 100	> 100	> 100	–	> 100	> 100	> 100	> 100	> 100	> 100	–	–	–	–	–	–	–	–
CC(=O)OC12CC(C(F)(F)F)(C(F)(F)F)OC1(OC(C)=O)CC(C(F)(F)F)(C(F)(F)F)O2 (centres undefined)	–	> 100	> 100	8.71	70.4	> 100	> 100	–	> 100	> 100	67.6	> 100	–	–	–	–	–	–	–	–
N=c1n(CC(=O)NC23CC4CC(CC(C4)C2)C3)c2ccccc2n1CC(=O)NC12CC3CC(CC(C3)C1)C2	3.06	3.1	3.45	3.13	–	4.12	3.17	24.3	3.17	3.21	6	3.02	–	–	–	–	–	–	–	–
CO[C@H]1CC[C@]2(C)C3=CC[C@@]4(C)C(CC[C@@H]4C(C)CC[C@@H](C)C(C)C)C(=CCC2C1)O3 (some centres undefined)	> 25	> 25	> 25	> 7.9	–	> 25	> 25	> 25	> 25	> 25	> 25	> 25	–	–	–	–	–	–	–	–
Cc1nc(N)sc1C(=O)Nc1ncn[nH]1	> 100	> 100	> 100	> 100	> 100	–	> 100	> 100	> 100	> 100	> 100	> 100	–	–	–	–	–	–	–	–
Nc1nc(Nc2ccc(Cl)cc2)sc1C(=O)c1c[nH]c2ccccc12	36.2	37.1	28	27.8	38.9	24.3	39.8	–	21.3	20	–	38	–	–	–	–	–	–	–	–
C[N+](C)(C)CCOC(=O)/C=C/c1cnc[nH]1	> 500	> 500	> 500	> 500	–	> 500	> 500	> 500	> 500	> 500	> 316	> 500	–	–	–	–	–	–	–	–
Cn1c(=O)c2c(nc3n2CCC(=O)N3CCCCl)n(C)c1=O	> 100	> 100	> 100	> 100	> 100	> 100	> 100	–	> 100	> 100	> 100	> 100	–	–	–	–	–	–	–	–
CC(=O)Oc1c2c(c(OC(C)=O)c3c1n(C(C)=O)c1ccccc1n3C(C)=O)n(C(C)=O)c1ccccc1n2C(C)=O	–	–	37	25.7	–	46.1	16.8	55.1	15.4	13	8.7	53.8	–	–	–	–	–	–	–	–
Cc1ccc2n(c1)cc(-c1ccc(/C=N/NC(=N)N/N=C/c3ccc(-c4cn5cc(C)ccc5[n+]4C)cc3)cc1)[n+]2C	–	> 100	–	–	–	35.2	33.6	–	> 100	> 100	> 100	> 100	–	–	–	–	–	–	–	–
c1ccc2[nH]c3c(N=NC4=NCCN4)c4ccccc4c-3nc2c1	20.4	> 100	21.1	23.3	> 100	16.4	27.2	–	7.81	2.7	> 100	68.9	–	–	–	–	–	–	–	–
COCCOC(C)C(=O)C(O)S(=O)(=O)O (centres undefined)	> 100	> 100	> 100	> 100	> 100	> 100	> 100	–	> 100	> 100	> 100	> 100	–	–	–	–	–	–	–	–
